Results published in patent publication US20250332266A1, “COMPOUNDS FOR THE DEGRADATION OF EGFR KINASE” (BeiGene Switzerland GmbH, priority 2022, published 2025).

Legend:
[1] = target: EGFR Del19/T790M/C797S (H1975-clone #28) (Homo sapiens, UniProt P00533, T790M/C797S, form not given); assay: EGFR degradation, HTRF total-EGFR assay, H1975-clone #28 (DTC); type: cell-based; settings: H1975-clone #28 Del19/T790M/C797S, 16 h treatment
Summary of the method: (§1)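 H1975 clones with endogenous EGFR knocked out and homozygous exogenous EGFR mutants (#28 Del19/T790M/C797S; #25 L858R/T790M/C797S) treated 16 h at 37 °C, 8 doses, 5-fold from 10 μM, 0.2% DMSO. Total EGFR measured by HTRF on lysates, normalised to DMSO controls; DC50 and Dmax from curve fit.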

[2] = target: T1, EGFR L858R/T790M/C797S (H1975-clone #25) (Homo sapiens, UniProt P00533, C797S/L858R/T790M); assay: EGFR degradation, HTRF total-EGFR assay, H1975-clone #25 (LTC); type: cell-based; settings: H1975-clone #25 L858R/T790M/C797S, 16 h treatment
T1 construct: expressed in transfected cells; host or cells: H1975 (clone #25), lentiviral transduction, endogenous EGFR knocked out
Summary of the method: as §1

EGFR Del19/T790M/C797S (H1975-clone #28), sequence (P00533 with tags, fused parts or gaps DEL746-750/T790M/C797S, form open): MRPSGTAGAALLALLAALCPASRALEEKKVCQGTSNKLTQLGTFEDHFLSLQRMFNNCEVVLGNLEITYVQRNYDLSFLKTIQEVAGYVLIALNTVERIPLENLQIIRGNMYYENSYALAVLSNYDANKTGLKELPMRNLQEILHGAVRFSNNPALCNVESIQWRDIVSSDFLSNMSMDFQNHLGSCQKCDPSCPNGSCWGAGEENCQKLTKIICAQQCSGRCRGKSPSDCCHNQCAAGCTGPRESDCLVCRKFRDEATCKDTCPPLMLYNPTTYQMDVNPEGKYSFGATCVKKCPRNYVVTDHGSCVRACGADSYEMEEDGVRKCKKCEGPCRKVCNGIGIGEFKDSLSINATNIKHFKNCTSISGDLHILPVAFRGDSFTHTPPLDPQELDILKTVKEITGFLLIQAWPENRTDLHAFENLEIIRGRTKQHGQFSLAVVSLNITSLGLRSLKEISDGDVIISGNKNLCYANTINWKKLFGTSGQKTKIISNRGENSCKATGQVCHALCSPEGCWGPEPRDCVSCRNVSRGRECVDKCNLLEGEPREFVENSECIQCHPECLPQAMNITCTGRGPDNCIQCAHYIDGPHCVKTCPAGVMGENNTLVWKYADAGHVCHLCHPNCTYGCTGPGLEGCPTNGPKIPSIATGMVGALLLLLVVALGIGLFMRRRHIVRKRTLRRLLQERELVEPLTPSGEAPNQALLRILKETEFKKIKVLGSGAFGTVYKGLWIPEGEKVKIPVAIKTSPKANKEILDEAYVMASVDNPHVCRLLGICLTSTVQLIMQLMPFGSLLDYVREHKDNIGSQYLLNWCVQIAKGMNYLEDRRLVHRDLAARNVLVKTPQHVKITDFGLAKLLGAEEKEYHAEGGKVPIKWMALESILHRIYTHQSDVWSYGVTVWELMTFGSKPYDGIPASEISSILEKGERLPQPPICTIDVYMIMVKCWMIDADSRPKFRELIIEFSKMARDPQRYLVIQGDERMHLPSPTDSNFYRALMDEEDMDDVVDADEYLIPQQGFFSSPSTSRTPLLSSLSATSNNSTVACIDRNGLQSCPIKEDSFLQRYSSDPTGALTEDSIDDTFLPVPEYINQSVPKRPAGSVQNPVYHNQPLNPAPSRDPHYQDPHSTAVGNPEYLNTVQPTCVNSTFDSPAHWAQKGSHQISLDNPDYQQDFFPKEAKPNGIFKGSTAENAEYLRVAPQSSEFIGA
T1 sequence (P00533 25-1210 T790M/C797S/L858R): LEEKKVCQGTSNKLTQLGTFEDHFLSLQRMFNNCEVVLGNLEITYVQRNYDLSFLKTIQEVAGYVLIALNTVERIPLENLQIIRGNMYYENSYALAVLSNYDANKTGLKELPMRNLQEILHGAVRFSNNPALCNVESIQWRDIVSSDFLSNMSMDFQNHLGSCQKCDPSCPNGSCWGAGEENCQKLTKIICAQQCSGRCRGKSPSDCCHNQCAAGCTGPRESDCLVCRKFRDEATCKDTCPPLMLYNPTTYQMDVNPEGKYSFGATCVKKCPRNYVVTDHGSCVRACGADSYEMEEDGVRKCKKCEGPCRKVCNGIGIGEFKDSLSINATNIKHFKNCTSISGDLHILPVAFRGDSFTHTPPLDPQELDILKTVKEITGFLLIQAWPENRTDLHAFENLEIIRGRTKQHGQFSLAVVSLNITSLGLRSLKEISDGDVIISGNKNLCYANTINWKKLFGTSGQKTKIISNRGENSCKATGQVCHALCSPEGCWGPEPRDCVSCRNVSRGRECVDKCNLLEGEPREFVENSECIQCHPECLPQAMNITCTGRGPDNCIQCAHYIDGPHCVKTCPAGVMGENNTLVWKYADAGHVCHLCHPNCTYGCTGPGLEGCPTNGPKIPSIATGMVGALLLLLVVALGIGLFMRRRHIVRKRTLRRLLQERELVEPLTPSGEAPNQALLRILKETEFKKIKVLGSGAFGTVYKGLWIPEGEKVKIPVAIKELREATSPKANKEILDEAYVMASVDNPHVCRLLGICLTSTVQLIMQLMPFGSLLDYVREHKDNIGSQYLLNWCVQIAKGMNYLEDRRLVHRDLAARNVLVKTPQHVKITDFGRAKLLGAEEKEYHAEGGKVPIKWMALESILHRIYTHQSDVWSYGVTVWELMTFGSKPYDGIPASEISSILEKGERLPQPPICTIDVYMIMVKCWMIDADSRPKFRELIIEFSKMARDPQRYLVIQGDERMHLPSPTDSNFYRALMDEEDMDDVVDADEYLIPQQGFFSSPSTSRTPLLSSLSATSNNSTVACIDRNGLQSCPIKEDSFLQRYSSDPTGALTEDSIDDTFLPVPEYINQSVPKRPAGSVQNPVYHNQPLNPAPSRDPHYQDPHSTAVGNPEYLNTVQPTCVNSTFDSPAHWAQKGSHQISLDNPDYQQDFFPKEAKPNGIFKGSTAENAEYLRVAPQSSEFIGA

Compound	Degradation H1975 # 28 DTC [1]	Degradation H1975 # 25-LTC [2]
Cc1cc2cc(n1)-c1cnn(C)c1OC[C@H]1C[C@@H](CN3/C(=N/C2=O)Nc2ccc(N4CCN([C@@H]5CCN(c6cc(F)c([C@H]7CCC(=O)NC7=O)c(F)c6)C[C@@H]5F)CC4)cc23)C1 [Example 66, (R)-3-(4-((3S,4R)-4-(4-((7^1s,7^3S,E)-1^1,2^6-dimethyl-3-oxo-5^2,5^3-dihydro-1^1H,5^1H-9-oxa-4-aza-5(2,1)-benzo[d]imidazola-2(2,4)-pyridina-1(4,5)-pyrazola-7(1,3)-cyclobutanacyclononaphane-5^6-yl)piperazin-1-yl)-3-fluoropiperidin-1-yl)-2,6-difluorophenyl)piperidine-2,6-dione]	82.1	75.9
Cc1cc2cc(n1)-c1cnn(C)c1OC[C@H]1C[C@@H](CN3/C(=N/C2=O)Nc2ccc(N4CCC(N5CCN(c6cc(F)c([C@H]7CCC(=O)NC7=O)c(F)c6)CC5=O)CC4)cc23)C1 [Example 70, (R)-3-(4-(4-(1-((7^1s,7^3s,E)-1^1,2^6-dimethyl-3-oxo-5^2,5^3-dihydro-1^1H,5^1H-9-oxa-4-aza-5(2,1)-benzo[d]imidazola-2(2,4)-pyridina-1(4,5)-pyrazola-7(1,3)-cyclobutanacyclononaphane-5^6-yl)piperidin-4-yl)-3-oxopiperazin-1-yl)-2,6-difluorophenyl)piperidine-2,6-dione]	88.7	91.8
Cc1cc2cc(n1)-c1cnn(C)c1OC[C@H]1C[C@@H](CN3/C(=N/C2=O)Nc2ccc(N4CCN(CCc5ccc(C6CCC(=O)NC6=O)nc5C)CC4)cc23)C1 (stereo partly shown) [Example 82, 3-(5-(2-(4-((7^1s,7^3s,E)-1^1,2^6-dimethyl-3-oxo-5^2,5^3-dihydro-1^1H,5^1H-9-oxa-4-aza-5(2,1)-benzo[d]imidazola-2(2,4)-pyridina-1(4,5)-pyrazola-7(1,3)-cyclobutanacyclononaphane-5^6-yl)piperazin-1-yl)ethyl)-6-methylpyridin-2-yl)piperidine-2,6-dione]	79.5	90.3
COC[C@@H]1CN(c2ccc3c(c2)N2C[C@H]4C[C@@H](COc5c(cnn5C)-c5cc(cc(C)n5)C(=O)/N=C/2N3)C4)CCN1C1CCN(c2ccc(C3CCC(=O)NC3=O)nc2C)CC1 (stereo partly shown) [Example 109]	81.0	90.4
Cc1cc2cc(n1)-c1cnn(C)c1OC[C@H]1C[C@@H](CN3/C(=N/C2=O)Nc2ccc(N4CCC(N5CCN(c6cnc(C7CCC(=O)NC7=O)cc6C)C[C@@H]5C)CC4)cc23)C1 (stereo partly drawn) [Example 110, 3-(5-((S)-4-(1-((7^1s,7^3R,E)-1^1,2^6-dimethyl-3-oxo-5^2,5^3-dihydro-1^1H,5^1H-9-oxa-4-aza-5(2,1)-benzo[d]imidazola-2(2,4)-pyridina-1(4,5)-pyrazola-7(1,3)-cyclobutanacyclononaphane-5^6-yl)piperidin-4-yl)-3-methylpiperazin-1-yl)-4-methylpyridin-2-yl)piperidine-2,6-dione]	82.2	90.3
Cc1cc2cc(n1)-c1cnn(C)c1OC[C@H]1C[C@@H](CN3/C(=N/C2=O)Nc2ccc(N(C)C4CC5(C4)CN(C4CCN(c6ccc(C7CCC(=O)NC7=O)nc6C)CC4)C5)cc23)C1 (stereo partly shown) [Example 112, 3-(5-(4-(6-(((7^1s,7^3s,E)-1^1,2^6-dimethyl-3-oxo-5^2,5^3-dihydro-1^1′H,5^1H-9-oxa-4-aza-5(2,1)-benzo[d]imidazola-2(2,4)-pyridina-1(4,5)-pyrazola-7(1,3)-cyclobutanacyclononaphane-5^6-yl)(methyl)amino)-2-azaspiro[3.3]heptan-2-yl)piperidin-1-yl)-6-methylpyridin-2-yl)piperidine-2,6-dione]	75.2	85.2
Cc1cc2cc(n1)-c1cnn(C)c1OC[C@H]1C[C@@H](CN3/C(=N/C2=O)Nc2ccc(N4CC5(C4)CN(C4CCN(c6ccc(C7CCC(=O)NC7=O)nc6C)CC4)C5)cc23)C1 (stereo partly shown) [Example 113, 3-(5-(4-(6-((7^1s,7^3s,E)-1^1,2^6-dimethyl-3-oxo-5^2,5^3-dihydro-1^1H,5^1H-9-oxa-4-aza-5(2,1)-benzo[d]imidazola-2(2,4)-pyridina-1(4,5)-pyrazola-7(1,3)-cyclobutanacyclononaphane-5^6-yl)-2,6-diazaspiro[3.3]heptan-2-yl)piperidin-1-yl)-6-methylpyridin-2-yl)piperidine-2,6-dione]	75.7	78.4
Cc1cc2cc(n1)-c1cnn(C)c1OC[C@H]1C[C@@H](CN3/C(=N/C2=O)Nc2ccc(N(C)CC4CN(C5CCN(c6ccc(C7CCC(=O)NC7=O)nc6C)CC5)C4)cc23)C1 (stereo partly shown) [Example 114, 3-(5-(4-(3-((((7^1s,7^3s,E)-1^1,2^6-dimethyl-3-oxo-5^2,5^3-dihydro-1′H,5^1H-9-oxa-4-aza-5(2,1)-benzo[d]imidazola-2(2,4)-pyridina-1(4,5)-pyrazola-7(1,3)-cyclobutanacyclononaphane-5^6-yl)(methyl)amino)methyl)azetidin-1-yl)piperidin-1-yl)-6-methylpyridin-2-yl)piperidine-2,6-dione]	79.0	86.8
Cc1cc2cc(n1)-c1cnn(C)c1OC[C@H]1C[C@@H](CN3/C(=N/C2=O)Nc2ccc(N4C[C@@H]5C[C@H]4CN5C4CCN(c5ccc(C6CCC(=O)NC6=O)nc5C)CC4)cc23)C1 (stereo partly drawn) [Example 117, 3-(5-(4-((1S,4S)-5-((7^1s,7^3R,E)-1^1,2^6-dimethyl-3-oxo-5^2,5^3-dihydro-1^1H,5^1H-9-oxa-4-aza-5(2,1)-benzo[d]imidazola-2(2,4)-pyridina-1(4,5)-pyrazola-7(1,3)-cyclobutanacyclononaphane-5^6-yl)-2,5-diazabicyclo[2,2,1]heptan-2-yl)piperidin-1-yl)-6-methylpyridin-2-yl)piperidine-2,6-dione]	78.2	90.6
COC[C@@H]1CN(c2ccc3c(c2)N2C[C@H]4C[C@@H](COc5c(cnn5C)-c5cc(cc(C)n5)C(=O)/N=C/2N3)C4)CCN1C1CCN(c2cnc(C3CCC(=O)NC3=O)cc2C)CC1 (stereo partly drawn) [Example 120, 3-(5-(4-((S)-4-((7^1s,7^3R,E)-1^1,2^6-dimethyl-3-oxo-5^2,5^3-dihydro-1^1H,5^1H-9-oxa-4-aza-5(2,1)-benzo[d]imidazola-2(2,4)-pyridina-1(4,5)-pyrazola-7(1,3)-cyclobutanacyclononaphane-5^6-yl)-2-(methoxymethyl)piperazin-1-yl)piperidin-1-yl)-4-methylpyridin-2-yl)piperidine-2,6-dione]	82.4	83.1
Cc1cc2cc(n1)-c1cnn(C)c1OC[C@H]1C[C@@H](CN3/C(=N/C2=O)Nc2ccc(N4CCN(C5CN(C6CCN(c7ccc(C8CCC(=O)NC8=O)nc7C)CC6)C5)CC4)cc23)C1 (stereo partly shown) [Example 121, 3-(5-(4-(3-(4-((7^1s,7^3s,E)-1^1,2^6-dimethyl-3-oxo-5^2,5^3-dihydro-1^1H,5^1H-9-oxa-4-aza-5(2,1)-benzo[d]imidazola-2(2,4)-pyridina-1(4,5)-pyrazola-7(1,3)-cyclobutanacyclononaphane-5^6-yl)piperazin-1-yl)azetidin-1-yl)piperidin-1-yl)-6-methylpyridin-2-yl)piperidine-2,6-dione]	83.2	89.5
Cc1cc2cc(n1)-c1cnn(C)c1OC[C@H]1C[C@@H](CN3/C(=N/C2=O)Nc2ccc(N4CC[C@H](N5CCN(c6ccc(C7CCC(=O)NC7=O)nc6C)CC5)C(F)(F)C4)cc23)C1 (stereo partly drawn) [Example 122, 3-(5-(4-((S)-1-((7^1s,7^3R,E)-1^1,2^6-dimethyl-3-oxo-5^2,5^3-dihydro-1^1H,5^1H-9-oxa-4-aza-5(2,1)-benzo[d]imidazola-2(2,4)-pyridina-1(4,5)-pyrazola-7(1,3)-cyclobutanacyclononaphane-5^6-yl)-3,3-difluoropiperidin-4-yl)piperazin-1-yl)-6-methylpyridin-2-yl)piperidine-2,6-dione]	84.1	90.9
Cc1cc2cc(n1)-c1cnn(C)c1OC[C@H]1C[C@@H](CN3/C(=N/C2=O)Nc2ccc(N4CCN([C@@H]5CCN(c6ccc(C7CCC(=O)NC7=O)nc6C)CC5(F)F)CC4)cc23)C1 (stereo partly drawn) [Example 123, 3-(5-((R)-4-(4-((7^1s,7^3S,E)-1^1,2^6-dimethyl-3-oxo-5^2,5^3-dihydro-1^1H,5^1H-9-oxa-4-aza-5(2,1)-benzo[d]imidazola-2(2,4)-pyridina-1(4,5)-pyrazola-7(1,3)-cyclobutanacyclononaphane-5^6-yl)piperazin-1-yl)-3,3-difluoropiperidin-1-yl)-6-methylpyridin-2-yl)piperidine-2,6-dione]	85.6	92.1
Cc1cc2cc(n1)-c1cnn(C)c1OC[C@H]1C[C@@H](CN3/C(=N/C2=O)Nc2ccc(N4CCN(C5CCN(c6ccc(C7CCC(=O)NC7=O)nc6C)CC5)CC45COC5)cc23)C1 (stereo partly shown) [Example 124, 3-(5-(4-(5-((7^1s,7^3S,E)-1^1,2^6-dimethyl-3-oxo-5^2,5^3-dihydro-1^1H,5^1H-9-oxa-4-aza-5(2,1)-benzo[d]imidazola-2(2,4)-pyridina-1(4,5)-pyrazola-7(1,3)-cyclobutanacyclononaphane-5^6-yl)-2-oxa-5,8-diazaspiro[3.5]nonan-8-yl)piperidin-1-yl)-6-methylpyridin-2-yl)piperidine-2,6-dione]	82.6	87.5
